Assays:
[1] = target: OAT1 (Homo sapiens, UniProt Q4U2R8); test: Transporter inhibition; assay type: in vitro ADME; conditions: clinically relevant concentrations
[2] = target: BCRP (Homo sapiens, UniProt Q9UNQ0); test: Transporter inhibition; assay type: in vitro ADME; conditions: clinically relevant concentrations
[3] = test system: patients with episodic migraine; test: Study 2 (NCT02848326): preventive treatment of episodic migraine, efficacy; assay type: in vivo, human
Method: The studies enrolled patients with at least a 1-year history of migraine with or without aura, according to the International Classification of Headache Disorders (ICHD-3) diagnostic criteria. In Study 1 (NCT03777059), 910 patients were randomized 1:1:1:1 to receive atogepant 10 mg (N=222), atogepant 30 mg (N=230), atogepant 60 mg (N=235), or placebo (N=223), once daily for 12 weeks. In Study 2 (NCT02848326), 652 patients were randomized 1:2:2:2 to receive atogepant 10 mg (N=94), atogepant 30 mg (N=185), atogepant 60 mg (N=187), or placebo (N=186), once daily for 12 weeks. In both studies, patients were allowed to use acute headache treatments (i.e., triptans, ergotamine derivatives, NSAIDs, acetaminophen, and opioids) as needed. The use of a concomitant medication that acts on the CGRP pathway was not permitted for either acute or preventive treatment of migraine. The studies excluded patients with myocardial infarction, stroke, or transient ischemic attacks within six months prior to screening. The primary efficacy endpoint was the change from baseline in mean monthly migraine days across the 12-week treatment period.

[4] = target: OATP1B1 (Homo sapiens, UniProt Q9Y6L6); test: Transporter inhibition; assay type: in vitro ADME
Sequence of OATP1B1 (Q9Y6L6 whole entry): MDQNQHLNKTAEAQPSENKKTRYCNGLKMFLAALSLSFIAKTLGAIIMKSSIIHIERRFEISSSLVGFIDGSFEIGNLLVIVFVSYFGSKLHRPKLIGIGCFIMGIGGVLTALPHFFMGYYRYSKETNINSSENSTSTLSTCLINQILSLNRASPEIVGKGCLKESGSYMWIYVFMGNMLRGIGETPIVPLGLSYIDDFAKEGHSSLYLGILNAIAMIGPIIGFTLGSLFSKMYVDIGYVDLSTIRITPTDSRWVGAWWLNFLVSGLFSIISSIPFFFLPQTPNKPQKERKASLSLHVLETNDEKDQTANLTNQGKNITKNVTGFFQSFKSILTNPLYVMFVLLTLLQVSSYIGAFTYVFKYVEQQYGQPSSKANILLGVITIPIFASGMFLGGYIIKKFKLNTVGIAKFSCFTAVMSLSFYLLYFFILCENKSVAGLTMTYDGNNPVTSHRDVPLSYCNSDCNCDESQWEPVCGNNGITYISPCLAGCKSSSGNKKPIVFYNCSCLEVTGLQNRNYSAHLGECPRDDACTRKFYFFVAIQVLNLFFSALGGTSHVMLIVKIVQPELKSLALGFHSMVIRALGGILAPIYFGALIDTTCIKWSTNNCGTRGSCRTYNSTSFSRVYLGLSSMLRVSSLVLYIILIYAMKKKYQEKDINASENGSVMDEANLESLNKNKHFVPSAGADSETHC

[5] = target: CYP2C8 (Homo sapiens, UniProt P10632); test: In vitro CYP inhibition; assay type: in vitro ADME; conditions: clinically relevant concentrations
Sequence of CYP2C8 (P10632 whole entry): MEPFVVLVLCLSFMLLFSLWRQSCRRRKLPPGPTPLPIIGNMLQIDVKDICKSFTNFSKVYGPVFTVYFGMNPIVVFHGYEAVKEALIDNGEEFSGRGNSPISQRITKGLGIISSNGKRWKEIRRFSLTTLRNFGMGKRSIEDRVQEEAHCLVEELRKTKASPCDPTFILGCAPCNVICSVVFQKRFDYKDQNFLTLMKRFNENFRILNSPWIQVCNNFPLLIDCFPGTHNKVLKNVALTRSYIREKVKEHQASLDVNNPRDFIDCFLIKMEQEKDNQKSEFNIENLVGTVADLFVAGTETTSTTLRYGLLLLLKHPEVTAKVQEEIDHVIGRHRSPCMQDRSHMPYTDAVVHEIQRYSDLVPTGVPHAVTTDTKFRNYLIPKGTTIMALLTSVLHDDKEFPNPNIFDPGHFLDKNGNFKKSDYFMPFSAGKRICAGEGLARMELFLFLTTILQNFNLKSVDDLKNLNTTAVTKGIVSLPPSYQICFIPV

[6] = Atogepant-quinidine gluconate interaction study: safety; assay type: in vivo, human; conditions: atogepant 60 mg alone or with quinidine gluconate
Excerpt: Atogepant PK parameters calculated were peak plasma concentration (Cmax); time to Cmax (tmax); and area under plasma concentration—time curve from time 0 to time t (AUC0-t) and infinity (AUC0-∞). […] Safety assessments included clinical laboratory values, vital signs, electrocardiograms, and […] adverse events (TEAEs).

[7] = Plasma protein binding in human plasma; assay type: in vitro ADME; conditions: human plasma
[8] = test system: plasma protein; test: Plasma protein binding in human plasma; assay type: in vitro ADME; conditions: range of 0.1 to 10 μM
[9] = Study 2, atogepant 10 mg once daily
[10] = Study 2, atogepant 30 mg once daily
[11] = Study 2, atogepant 60 mg once daily

Sequence of BCRP (Q9UNQ0 whole entry): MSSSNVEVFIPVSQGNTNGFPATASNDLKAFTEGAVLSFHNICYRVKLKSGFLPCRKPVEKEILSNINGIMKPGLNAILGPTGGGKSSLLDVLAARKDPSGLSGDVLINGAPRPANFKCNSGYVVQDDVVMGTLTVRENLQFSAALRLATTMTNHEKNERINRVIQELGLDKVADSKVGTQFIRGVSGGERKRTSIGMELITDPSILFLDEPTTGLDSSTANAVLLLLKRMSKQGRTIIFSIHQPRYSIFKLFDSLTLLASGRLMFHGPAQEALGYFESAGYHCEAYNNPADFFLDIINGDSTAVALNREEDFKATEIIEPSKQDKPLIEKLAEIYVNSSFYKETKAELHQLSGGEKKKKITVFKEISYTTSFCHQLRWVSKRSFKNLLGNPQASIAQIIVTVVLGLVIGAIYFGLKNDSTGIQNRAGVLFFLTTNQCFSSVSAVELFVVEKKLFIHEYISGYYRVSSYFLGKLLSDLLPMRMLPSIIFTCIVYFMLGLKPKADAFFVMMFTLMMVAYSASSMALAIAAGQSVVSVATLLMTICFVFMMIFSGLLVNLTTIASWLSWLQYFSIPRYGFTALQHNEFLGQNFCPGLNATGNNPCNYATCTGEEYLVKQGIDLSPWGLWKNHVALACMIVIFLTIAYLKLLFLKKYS
Sequence of OAT1 (Q4U2R8 whole entry): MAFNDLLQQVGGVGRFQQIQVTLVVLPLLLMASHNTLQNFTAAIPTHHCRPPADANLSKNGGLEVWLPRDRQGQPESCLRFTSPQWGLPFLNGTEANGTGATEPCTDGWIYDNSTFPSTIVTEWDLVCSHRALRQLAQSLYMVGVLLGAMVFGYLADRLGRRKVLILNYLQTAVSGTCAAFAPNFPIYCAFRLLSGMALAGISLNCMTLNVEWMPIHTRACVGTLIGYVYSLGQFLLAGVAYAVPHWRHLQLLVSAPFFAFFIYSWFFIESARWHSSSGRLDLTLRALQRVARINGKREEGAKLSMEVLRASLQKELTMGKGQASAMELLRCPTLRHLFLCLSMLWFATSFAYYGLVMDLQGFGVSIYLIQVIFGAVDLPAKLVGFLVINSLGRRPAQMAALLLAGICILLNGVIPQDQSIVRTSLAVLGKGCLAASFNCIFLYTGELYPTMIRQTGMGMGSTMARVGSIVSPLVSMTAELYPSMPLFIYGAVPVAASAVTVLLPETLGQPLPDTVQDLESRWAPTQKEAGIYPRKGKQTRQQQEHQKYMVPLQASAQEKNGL

C[C@@H]1[C@H](c2c(F)ccc(F)c2F)C[C@H](NC(=O)c2cnc3c(c2)C[C@@]2(C3)C(=O)Nc3ncccc32)C(=O)N1CC(F)(F)F [atogepant, (3′S)-N-[(3S,5S,6R)-6-methyl-2-oxo-1-(2,2,2-trifluoroethyl)-5-(2,3,6-trifluorophenyl)piperidin-3-yl]-2′-oxo-1′,2′,5,7-tetrahydrospiro[cyclopenta[b]pyridine-6,3′-pyrrolo[2,3-b]pyridine]-3-carboxamide]
inhibition of OAT1 [1]: not an inhibitor
inhibition of BCRP [2]: not an inhibitor
Monthly Headache Days across 12 weeks, difference from placebo [3, 9]: −1.4
Monthly Headache Days across 12 weeks, mean change from baseline [3, 9]: −4.3
Monthly Migraine Days (MMD) across 12 weeks, difference from placebo [3, 9]: −1.1
Monthly Migraine Days (MMD) across 12 weeks, mean change from baseline [3, 9]: −4.0
Monthly Headache Days across 12 weeks, difference from placebo [3, 10]: −1.2
Monthly Headache Days across 12 weeks, mean change from baseline [3, 10]: −4.2
Monthly Migraine Days (MMD) across 12 weeks, difference from placebo [3, 10]: −0.9
Monthly Migraine Days (MMD) across 12 weeks, mean change from baseline [3, 10]: −3.8
Monthly Headache Days across 12 weeks, difference from placebo [3, 11]: −0.9
Monthly Headache Days across 12 weeks, mean change from baseline [3, 11]: −3.9
Monthly Migraine Days (MMD) across 12 weeks, difference from placebo [3, 11]: −0.7
Monthly Migraine Days (MMD) across 12 weeks, mean change from baseline [3, 11]: −3.6
inhibition of OATP1B1 [4]: weak inhibitor
inhibition of CYP2C8 [5]: not an inhibitor
safety and tolerability [6]: safe and well tolerated
fraction unbound [7]: ~0.047
concentration dependence of plasma protein binding [8]: not concentration-dependent

— patent US12350259B2, “Methods of treating migraine” (Allergan Pharmaceuticals International Limited, priority 2021, dated 2025)
